Data published in patent publication US4970301A, “2-(piperazinyl)-2-oxoethylene-substituted flavonoid compounds” (Adir et Cie, priority 1987, dated 1990).

Columns and labels:
phosphodiesterase = assay: Inhibition of the degradation of cyclic AMP by phosphodiesterase (spectrophotometry); type: biochemical; details: rat brain enzyme extract, 25° C., 265 nm
Experimental: Inhibition of the Degredation Reaction of Cyclic AMP by Phosohodiesterase
The enzyme extract necessary for this study is prepared from rat brain.
After decapitation, the brain is removed, weighed and frozen for half an hour at -70° C. The preparation, maintained in ice, is then diluted and homogenized in 50% glycerol containing 50 mmol tris(hydroxymethyl)aminomethane and 50 mmol magnesium sulfate, in the proportion of 5 ml per gram of brain. The preparation is then centrifuged. The supernatent is distributed in aliquots and stored at 4° C.
In the study, the enzyme extract is incubated :n the presence of cyclic AMP (Boehringer® Ref. 102300), alkaline phosphatase (Boehringer® Ref 108138), adenosine deaminase (Boehringer® Ref. 102091) and increasing amounts of the compounds of the invention. The kinetics of the degredation of cyclic AMP is followed by spectrophotometry at 25° C. A mixture devoid of alkaline phosphatase and adenosine deaminase is used as blank. The measurement of the optical density is carried out at 265 nm. The concentration of the compounds of the invention leading to a 50% inhibition of the enzymatic reaction (IC50) is calculated. Two reference substances, diosmine and theoprylline, are studied according to the same methodology.

[1] = tested on: polymorphonuclear leukocytes; assay: Oxygen-containing free radical production by polymorphonuclear leukocytes (chemiluminescence); type: cell-based; details: Leukocyte; rat polymorphonuclear leukocytes, Zymosan, Luminol; read-out: IC50, inhibition of the chemiluminescence reaction (free radical production)
Description: Evaluation of the Pharmacodynamic Activity with Respect to Oxygen-Containing Free Radicals Produced by Polymorphonuclear Leukocytes The possible pharmacodynamic activity of the compounds of the invention with respect to the production of free radicals by polymorphonuclear leukocytes was investigated in vitro. The cellular model used was rat polymorphonuclear leukocytes. This model is capable of producing free radicals in a manner that can be monitored. The production of free radicals was quantified by measurement of the chemiluminescence, which is proportional to their quantity. Quantities of 2×10^6 polymorphonuclear leukocyte cells, isolated from heparinized rat blood, are mixed with solutions of increasing concentrations of the compounds of the invention (2×10^-4 M to 2×10^-8 M). Appropriate amounts of Hanks' solution, Zymosan® (Sigma 24250) and Luminol® (Merck 82007) are then added successively. The solutions are kept shielded from the light, and transferred rapidly to a liquid scintillation counter. In the "blank" sample, the polymorphonuclear leukocytes are replaced by an equivalent volume of Hanks' solution, and in the "control" sample, the solution of "test compounds" is replaced by a Hanks' solution. The same study was carried out with a reference product: diosmine. The percentage inhibition of free radical production was calculated by the following formula: [formula] Cl control: Maximum chemiluminescence of "control" sample Cl compounds: Maximum chemiluminescence of "test compounds" sample Cl blank: Maximum chemiluminescence of "blank" sample […]

Solubility in water = type: physicochemical; details: addition salt
[2] = tested on: Croton Oil-Induced Edema of the Mouse's Ear; assay: Croton oil-induced edema of the mouse's ear; type: in vivo, CD1 (Charles River) male mice; details: single dose, sacrificed six hours after irritation
Experimental: Croton Oil-Induced Edema of the Mouse's Ear This test consists in inflaming the mouse's ears with an irritant solution based on croton oil, and in testing the preventive effect of the test compounds administered per os. The tests were carried out on batches of at least 8 CD1 (Charles River) male mice of average weight 18-20 g. The compounds of the invention were administered by gavage with a tube, in a single dose, on the basis of 0.1 ml of liquid per 10 g of mouse. The mouse was deprived of food, but not of drink, 2 hours before the gavage and until after the irritation. Thirty minutes after the gavage, each mouse was lightly anesthetized with ether. 10 μl of the irritant solution were then deposited by means of an Eppendorf pipette on the cutaneous surface of the pinna of the right ear; the left ear, which was not subjected to any treatment, acted as control. The animal was then replaced in the cage and sacrificed six hours later. The ears were sectioned along the cartilagineous edge and weighed immediately. To assess the activity of the product, the mean increase in weight of the ears of the treated batches (m) is compared by Student's test with that of the untreated control batch (mc).

| SMILES | IC50 (phosphodiesterase) [µM] | solubility (Solubility in water) [mg/mL] | further results |
| --- | --- | --- | --- |
| COc1ccc(-c2cc(=O)c3c(O)cc(O[C@@H]4O[C@H](CO[C@@H]5O[C@@H](C)[C@H](O)[C@@H](O)[C@H]5O)[C@@H](O)[C@H](O)[C@H]4O)cc3o2)cc1O [DIOSMINE, diosmine, reference compound] | 100 | – | IC50 [1]: 40 µM |
| CCOC(=O)COc1cc(-c2cc(=O)c3c(O)cc(OCC(=O)N4CCN(Cc5ccc(OC)c(OC)c5OC)CC4)cc3o2)ccc1OC [Example 1 (monophosphate), 7-[2-{4-[(2,3,4-trimethoxyphenyl)methyl]-1-piperazinyl}-2-oxoethoxy-5-hydroxy-4'-methoxy-3'-(2-ethoxy-2-oxoethoxy)flavone monophosphate] | – | 158 | – |
| CCOC(=O)COc1cc(OCC(=O)N2CCN(Cc3ccc(OC)c(OC)c3OC)CC2)c2c(=O)cc(-c3ccc(OC)c(OCC(=O)OCC)c3)oc2c1.Cl [Example 2 (hydrochloride), 5-[2-{4-[(2,3,4-Trimethoxyphenyl)methyl]-1-piperazinyl}-2-oxoethoxy]-7,3'-bis(2-ethoxy-2-oxoethoxy)-4'-methoxyflavone hydrochloride] | – | 163 | I (percentage inhibition of ear edema) ([2]; 166 mg.kg^-1 per os, p < 0.05): -34% |
| CCOC(=O)COc1cc(OCC(=O)N2CCN(Cc3ccc(OC)c(OC)c3OC)CC2)c2c(=O)cc(-c3ccc(OC)c(OCC(=O)OCC)c3)oc2c1 [Example 2, 5-[2-{4-[(2,3,4-Trimethoxyphenyl)methyl]-1-piperazinyl}-2-oxoethoxy-]-7,3'-bis(2-ethoxy-2-oxoethoxy)-4'-methoxyflavone] | 20 | – | IC50 [1]: 4 µM |
| COc1ccc(-c2cc(=O)c3c(O)cc(O[C@@H]4O[C@H](CO[C@@H]5O[C@@H](C)[C@H](O)[C@@H](O)[C@H]5O)[C@@H](O)[C@H](O)[C@H]4O)cc3o2)cc1OCC(=O)N1CCN(Cc2ccc(OC)c(OC)c2OC)CC1 [Example 3 (hemitartrate), 3'-[2-{4-[(2,3,4-Trimethoxyphenyl)methyl]-1-piperazinyl}-2-oxoethoxy]-4'-methoxy-5-hydroxyflavone 7-chamnoglucoside hemitartrate] | – | 200 | I (percentage inhibition of ear edema) ([2]; 200 mg.kg^-1 per os, p < 0.01): -26% |
| COc1ccc(-c2cc(=O)c3c(O)cc(O[C@@H]4O[C@H](CO[C@@H]5O[C@@H](C)[C@H](O)[C@@H](O)[C@H]5O)[C@@H](O)[C@H](O)[C@H]4O)cc3o2)cc1OCC(=O)N1CCN(Cc2ccc(OC)c(OC)c2OC)CC1 [Example 3, 3'-[2-{4-[(2,3,4-Trimethoxyphenyl)methyl]-1-piperazinyl}-2-oxoethoxy]-4'-methoxy-5-hydroxyflavone 7-chamnoglucoside] | 25 | – | – |
| COc1ccc(-c2cc(=O)c3c(O)cc(O[C@@H]4O[C@H](CO)[C@@H](O)[C@H](O)[C@H]4O)cc3o2)cc1OCC(=O)N1CCN(Cc2ccc(OC)c(OC)c2OC)CC1 [Example 4 (monophosphate), 3'-[2-{4-[(2,3,4-Trimethoxyphenyl)methyl]-1-piperazinyl}-2-oxoethoxy]-4'-methoxy-5-hydroxyflavone 7β-glucoside monophosphate] | – | 43 | I (percentage inhibition of ear edema) ([2]; 173 mg.kg^-1 per os, p < 0.05): -28% |
| COc1ccc(-c2cc(=O)c3c(O)cc(O)cc3o2)cc1OCC(=O)N1CCN(Cc2ccc(OC)c(OC)c2OC)CC1 [Example 5 (methanesulfonate), 3'-[2-{4-[(2,3,4-trimethoxyphenyl)methyl]-1-piperazinyl}-2-oxoethoxy]-4'-methoxy-5,7-dihydroxyflavone] | – | 35 | – |
| CCOC(=O)COc1cc(O)c2c(=O)cc(-c3ccc(OC)c(OCC(=O)N4CCN(Cc5ccc(OC)c(OC)c5OC)CC4)c3)oc2c1 [Example 6 (monophosphate), 3'[2-{4-[(2,3,4-Trimethoxyphenyl)methyl]-1-piperazinyl}-2-oxoethoxy]-4'-methoxy-5-hydroxy-7-(2-ethoxy-2-oxoethyoxy)flavone phosphate] | – | 39.5 | – |
| CCOC(=O)COc1cc(O)c2c(=O)cc(-c3ccc(OC)c(OCC(=O)N4CCN(Cc5ccc(OC)c(OC)c5OC)CC4)c3)oc2c1 [Example 6, 3'-[2-{4-[(2,3,4-Trimethoxyphenyl)methyl]-1-piperazinyl}-2-oxoethoxy]-4'-methoxy-5-hydroxy-7-(2-ethoxy-2-oxoethoxy)flavone] | – | – | IC50 [1]: 10 µM |
| COc1ccc(-c2cc(=O)c3c(O)cc(OCC(=O)N4CCN(Cc5ccc(OC)c(OC)c5OC)CC4)cc3o2)cc1OCC(=O)N1CCN(Cc2ccc(OC)c(OC)c2OC)CC1 [Example 7 (biphosphate), 7,3'-Bis[2-{4-[(2,3,4-trimethoxyphenyl)methyl]-1-piperazinyl}-2-oxoethoxy]-5-hydroxy-4'-methoxyflavone biphosphate] | – | 221 | – |
| COc1ccc(-c2cc(=O)c3c(O)cc(OCC(=O)N4CCN(Cc5ccc(OC)c(OC)c5OC)CC4)cc3o2)cc1OCC(=O)N1CCN(Cc2ccc(OC)c(OC)c2OC)CC1 [Example 7, 7,3'-Bis[2-{4-[(2,3,4-trimethoxyphenyl)methyl]-1-piperazinyl}-2-oxoethoxy]-5-hydroxy-4'-methoxyflavone] | 10 | – | – |
| COc1ccc(C2CC(=O)c3c(O)cc(OCC(=O)N4CCN(Cc5ccc(OC)c(OC)c5OC)CC4)cc3O2)cc1O.CS(=O)(=O)O (stereo not drawn) [Example 8 (methanesulfonate), 7-[2-{4-[(2,3,4-Trimethoxyphenyl)methyl]-1-piperazinyl}-2-oxoethoxy]-5,3'-dihydroxy-4'-methoxyflavanone methanesulfonate] | – | 1.4 | – |
| COc1ccc(C2CC(=O)c3c(O)cc(OCC(=O)N4CCN(Cc5ccc(OC)c(OC)c5OC)CC4)cc3O2)cc1O (stereo not drawn) [Example 8, 7-[2-{4-[(2,3,4-Trimethoxyphenyl)methyl]-1-piperazinyl}-2-oxoethoxy]-5,3'-dihydroxy-4'-methoxyflavanone] | 57 | – | IC50 [1]: 15 µM |
| Cn1c(=O)c2[nH]cnc2n(C)c1=O [THEOPHYLLINE, theophylline, reference compound] | 1000 | – | – |
